{"source": "patent US9018207B2", "about": "“Method of treatment or prophylaxis” (Spinifex Pharmaceuticals Pty Ltd, priority 2004, dated 2015)", "format_in_all_cases": "in vivo, Sprague-Dawley (SD) rats", "key": {"[1]": {"tested_on": "rats with a chronic constriction injury (CCI) of the sciatic nerve", "experiment": "Relief of tactile allodynia (von Frey paw withdrawal thresholds) in the ipsilateral (injured) hindpaw of CCI-rats", "experimental": "(§1) Adult male Sprague-Dawley (SD) rats were anaesthetized with Zoletil 100® (0.09 ml/200 g) and Xylazil-20™ (0.1 mL/200 g) administered by intraperitoneal (i.p.) injection, and a chronic constriction injury (CCI) of the sciatic nerve was produced according to the method of Bennett and Xie (1988). Briefly, the left common sciatic nerve was exposed at mid-thigh level by blunt dissection through the biceps femoris. Proximal to the trifurcation, 10 mm of nerve was freed of adhering tissue and four loose ligatures (3.0 silk) were tied around the sciatic nerve 1 mm apart). The incision was closed in layers. After surgery, rats received benzylpenicillin (60 mg s.c.) to prevent infection and were kept warm during surgical recovery. Rats were housed singly for 10-14 days prior to AT2 receptor antagonist or vehicle (normal saline) administration. After CCI-surgery, rats were inspected daily with regard to posture of the affected hindpaw, exploring behavior, body weight and water intake, and any signs of autotomy. Whilst under light anaesthesia with CO2/O2 (50:50%), CCI-rats or STZ-diabetic rats received a single bolus injection (200 μL) of one AT2 receptor antagonist (PD123,319 or L-159,686) by the intravenous (i.v.) or the intraperitoneal (i.p.) route, using a 250 μL Hamilton syringe. The test compounds were administered to CCI-rats at 14 days after CCI-surgery and to STZ-diabetic rats at approximately 8-wks after the induction of diabetes with STZ. Relief of tactile (mechanical) allodynia, the defining symptom of neuropathic pain, by each of the test agents, PD123,319 or L-159,686, was quantified using calibrated von Frey filaments as described below. Tactile allodynia was quantified using calibrated von Frey filaments. Rats were placed in wire mesh testing cages (20 cm×20 cm×20 cm) and allowed to acclimatise for approximately […] Von Frey filaments were used to determine the lowest mechanical threshold required for a brisk paw withdrawal reflex. Briefly, the filament that produced the lowest force was applied to the plantar surface of the hindpaw until the filament buckled slightly. Absence of a response after 5 s prompted use of the next filament in an ascending sequence. Filaments used produced a buckling weight of 2, 4, 6, 8, 10, 12, 14, 16, 18 and 20 g and these were calibrated prior to each testing session. […] For CCI-rats, baseline von Frey paw withdrawal thresholds (PWTs) were quantified prior to CCI-surgery, and at 14 days post-surgery immediately prior to drug administration. For STZ-diabetic rats, baseline von Frey PWT values were determined prior to the induction of diabetes with STZ and at 1-2 weekly intervals thereafter for 8 weeks to document the temporal development of tactile allodynia. For all rats, baseline PWTs were the mean of three readings taken, 5 min apart before drug administration and were determined separately for each hindpaw. After administration of each test compound, von Frey PWTs were determined at the following post-dosing times: 0.08, 0.25, 0.5, 0.75, 1, 1.25, 1.5, 2 and 3 h. Paw withdrawal thresholds (PWTs; g) were plotted against time to construct response versus time curves for each of the two test compounds (PD123,319 and L-159,686) for each dose and dosing route. Whilst adult male SD rats were anaesthetized with 3% isoflurane: 97% oxygen, four loose ligatures were tied around one sciatic nerve to produce a unilateral chronic constriction injury (CCI) according to the method of Bennett and Xie (1988, Pain 33: 87-107). Briefly, the left common sciatic nerve was exposed at mid-thigh level by blunt dissection through the biceps femoris. Proximal to the trifurcation, 10 mm of nerve was freed of adhering tissue and four loose ligatures (3.0 silk) were tied around the sciatic nerve 1 mm apart). The incision was closed in layers. After surgery, rats received benzylpenicillin (60 mg s.c.) to prevent infection and were kept warm during surgical recovery. […]"}, "[2]": {"tested_on": "rats with a chronic constriction injury (CCI) of the sciatic nerve", "experiment": "Antinociception (von Frey paw withdrawal thresholds) in the contralateral hindpaw of CCI-rats", "details": "i.p. doses up to 30 μg/kg", "experimental": "as §1, with “87-107).” for “87-107). Briefly, the left common sciatic nerve was exposed at mid-thigh level by blunt dissection through the biceps femoris. Proximal to the trifurcation, 10 mm of nerve was freed of adhering tissue and four loose ligatures (3.0 silk) were tied around the sciatic nerve 1 mm apart). The incision was closed in layers. After surgery, rats received benzylpenicillin (60 mg s.c.) to prevent infection and were kept warm during surgical recovery.”"}, "STZ-diabetic rats": {"tested_on": "STZ-diabetic rats", "experiment": "Relief of tactile allodynia (von Frey paw withdrawal thresholds) in the hindpaws of STZ-diabetic rats (model of PDN)", "experimental": "Adult male SD rats were anaesthetized in a manner similar to that described above, to facilitate insertion of a polyethylene cannula (previously filled with 0.1 ml of sterile saline) into the right common jugular vein. Jugular vein cannulae were tested for correct placement by the withdrawal of a small amount of blood. Diabetes was induced following an acute i.v. injection of streptozotocin (STZ) (80 mg/kg) in 0.1 M citrate buffer (pH 4.5) into the jugular vein. Diabetes was confirmed by monitoring the water intake and blood glucose concentration in individual rats. Blood glucose was monitored using either (Glucostix™) or a Precision QID™ test kit.\nConsistent with previous studies in the literature (Calcutt et al., 1996, Pain. 68(2-3):293-9), rats that drank more than 100 mL of water per day by 10 days post-STZ injection, were classified as diabetic, and only rats with blood glucose concentrations exceeding 15 mM were included in the subsequent experiments. By comparison, the water intake of control non-diabetic rats was approximately 20 mL per day and blood glucose concentrations were in the range 5-6 mM, consistent with the literature (Calcutt et al., 1996, supra).\nWhilst under light anaesthesia with CO2/O2 (50:50%), CCI-rats or STZ-diabetic rats received a single bolus injection (200 μL) of one AT2 receptor antagonist (PD123,319 or L-159,686) by the intravenous (i.v.) or the intraperitoneal (i.p.) route, using a 250 μL Hamilton syringe. The test compounds were administered to CCI-rats at 14 days after CCI-surgery and to STZ-diabetic rats at approximately 8-wks after the induction of diabetes with STZ. Relief of tactile (mechanical) allodynia, the defining symptom of neuropathic pain, by each of the test agents, PD123,319 or L-159,686, was quantified using calibrated von Frey filaments as described below.\nTactile allodynia was quantified using calibrated von Frey filaments. Rats were placed in wire mesh testing cages (20 cm×20 cm×20 cm) and allowed to acclimatise for approximately […] Von Frey filaments were used to determine the lowest mechanical threshold required for a brisk paw withdrawal reflex. Briefly, the filament that produced the lowest force was applied to the plantar surface of the hindpaw until the filament buckled slightly. Absence of a response after 5 s prompted use of the next filament in an ascending sequence. Filaments used produced a buckling weight of 2, 4, 6, 8, 10, 12, 14, 16, 18 and 20 g and these were calibrated prior to each testing session.\nFor CCI-rats, baseline von Frey paw withdrawal thresholds (PWTs) were quantified prior to CCI-surgery, and at 14 days post-surgery immediately prior to drug administration. For STZ-diabetic rats, baseline von Frey PWT values were determined prior to the induction of diabetes with STZ and at 1-2 weekly intervals thereafter for 8 weeks to document the temporal development of tactile allodynia. For all rats, baseline PWTs were the mean of three readings taken, 5 min apart before drug administration and were determined separately for each hindpaw. After administration of each test compound, von Frey PWTs were determined at the following post-dosing times: 0.08, 0.25, 0.5, 0.75, 1, 1.25, 1.5, 2 and 3 h.\nPaw withdrawal thresholds (PWTs; g) were plotted against time to construct response versus time curves for each of the two test compounds (PD123,319 and L-159,686) for each dose and dosing route.\nWhilst adult male SD rats were anaesthetized with 3% isoflurane: 97% oxygen, a short polyethylene cannula (0.4 mm ID, 0.8 mm OD) was inserted into the jugular vein to facilitate the intravenous (i.v) administration of a single dose of STZ (75 mg/kg). After removal of the i.v. cannula, the jugular vein was tied off, the wound was closed and topical bupivacaine was applied. Rats received benzylpenicillin (60 mg s.c.) to prevent infection and were kept warm during surgical recovery. […]"}, "[3]": {"tested_on": "rats with a chronic constriction injury (CCI) of the sciatic nerve", "experiment": "Relief of tactile allodynia (von Frey paw withdrawal thresholds) in the ipsilateral (injured) hindpaw of CCI-rats", "details": "oral bolus 30 μg/kg vs same dose i.p."}, "[4]": {"details": "CCI-rats, i.p. bolus 3 to 30 μg/kg"}, "[5]": {"details": "STZ-diabetic rats, i.p. bolus 1.0 to 100 ng/kg"}}, "note": "“Also recorded” adds a separate entry of the source."}
{"smiles": "COc1ccc2c(c1OCc1ccccc1)C[C@@H](C(=O)O)N(C(=O)C(c1ccccc1)c1ccccc1)C2", "note": "[PD-126,055]", "values": [{"measurement": "doses required to produce significant relief of tactile allodynia in CCI-rats compared with STZ-diabetic rats", "setting": "[1]; CCI-rats vs STZ-diabetic rats", "result": "considerably larger doses"}, {"measurement": "duration of action", "setting": "[1]; CCI-rats, 30 μg/kg, irrespective of dosing route (oral or i.p.)", "result": "~3", "unit": "h"}, {"measurement": "anti-allodynia (relief of tactile allodynia) in the ipsilateral hindpaw", "setting": "[1]; [4]", "result": "dose-dependent onset of anti-allodynia; also recorded: dose-dependent relief of tactile allodynia"}, {"measurement": "onset of anti-allodynia in the ipsilateral hindpaw", "setting": "[1]; [4]", "result": "rapid"}, {"measurement": "time of peak responses post-dosing", "setting": "[1]; [4]", "result": "0.75 to 1", "unit": "h"}, {"measurement": "duration of action", "setting": "[1]; CCI-rats, i.p., doses larger than 3 μg/kg", "result": "> 3", "unit": "h"}, {"measurement": "duration of action", "setting": "[1]; CCI-rats, i.p., lowest dose tested (3 μg/kg)", "result": 1.5, "unit": "h"}, {"measurement": "antinociception in the contralateral hindpaw", "setting": "[2]", "result": "insignificant antinociception"}, {"measurement": "relief of tactile allodynia (summary in discussion)", "setting": "STZ-diabetic rats; STZ-diabetic rat model of PDN, single i.p. bolus doses", "result": "potent relief of tactile allodynia"}, {"measurement": "duration of action", "setting": "STZ-diabetic rats; [5]", "result": "2 to 3", "unit": "h"}, {"measurement": "onset of action post-dosing", "setting": "STZ-diabetic rats; [5]", "result": 0.5, "unit": "h"}, {"measurement": "relief of tactile allodynia", "setting": "STZ-diabetic rats; [5]", "result": "significant relief of tactile allodynia"}, {"measurement": "time of peak anti-allodynia post-dosing", "setting": "STZ-diabetic rats; [5]", "result": "0.75 to 1.0", "unit": "h"}, {"measurement": "reversal of tactile allodynia in the hindpaws", "setting": "STZ-diabetic rats; STZ-diabetic rats, i.p., higher doses tested", "result": "fully reversed"}, {"measurement": "onset of anti-allodynia (summary in discussion)", "setting": "STZ-diabetic rats; STZ-diabetic rats, single i.p. bolus doses", "result": "relatively rapid onset"}, {"measurement": "extent and duration of the anti-allodynic response, oral compared with i.p. route", "setting": "[3]", "result": "similar"}]}
